According to patent EP0278452A2, “2,4- and 2,5-Pyridine-dicarboxylic-acid derivatives, process for their preparation, their use and medicines based on these compounds” (HOECHST AKTIENGESELLSCHAFT, priority 1987, dated 1988):

System: Prolin- und Lysinhydroxylase
Assay: CCl4-induced liver injury (fibrosis) in rats: collagen markers after treatment with the compound
Type: in vivo, Ratten
Conditions: rats given CCl4, then compound, Dosierung 2 x 25 mg
Text: Die Aktivität der Fibrogenase kann durch radioimmunologische Bestimmung des N-terminalen Propeptids des Kollagens Typ III oder der N- bzw. C-terminalen Quervernetzungsdomäne des Kollagens Typ IV (7s-Kollagen bzw. Typ-IV-Kollagen-NC₁) im Serum bestimmt werden.
Zu diesem Zweck wurden die Hydroxyprolin-, Prokollagen-III-Peptid-, 7s-Kollagen- und Typ-IV-Kollagen-NC₁-Konzentrationen in der Leber von • a) unbehandelten Ratten (Kontrolle) • b) Ratten, denen Tetrachlorkohlenstoff verabreicht wurde (CCl₄-Kontrolle) • c) Ratten, denen zunächst CCl₄ und anschließend eine erfindungsgemäße Verbindung verabreicht wurde gemessen (diese Testmethode wird beschrieben von Rouiller, C., experimental toxic injury of the liver; in The Liver, C. Rouiller, Vol. 2, S. 335-476, New York, Academic Press, 1964).
Die pharmakologische Wirksamkeit der erfindungsgemäßen Substanzen wurde in einer Versuchsreihe (s. Tabelle 1) untersucht. Dabei zeigte sich eine deutliche Hemmung der Prolin- und Lysinhydroxylase.

Structure (SMILES): COC(=O)C(C)(C)COC(=O)c1ccc(C(=O)OCC(C)(C)C(=O)OC)nc1 [compound 4, Pyridin-2,5-dicarbonsäure-bis(2-methoxycarbonyl-2,2-dimethylethyl)ester]
- Hydroxy-prolin (CCl4-Kontrolle 0.773, Kontrolle 0.289): 0.482 µg/mg Leber
- Prokollagen-III-Peptid (CCl4-Kontrolle 73.9, Kontrolle 11.1): 37.2 ng/mL
- Typ-IV-Kollagen-NC1 (CCl4-Kontrolle 168.4, Kontrolle 23.5): 100.8 ng/mL
- 7s-Kollagen (CCl4-Kontrolle 308.7, Kontrolle 22.8): 121.4 ng/mL
